Patent publication US5707996A, “Pharmaceutical solution and methods for preparation thereof” (Macleod Pharmaceuticals, Inc., priority 1995, dated 1998)
Read-outs that look alike come from different tables or passages of the source. Blank lines part the entries; values can stand above or below the molecule they belong to.

Experiments:
[1] = cited from earlier work
[2] = tested on: protozoal enzymes; settings: versus host cells; cited from earlier work

Structure (SMILES): Nc1ccc(S(=O)(=O)Nc2ncccn2)cc1 [Sodium sulfadiazine]
solubility in water (in words) [1]: soluble in water

Structure (SMILES): COc1cc(Cc2cnc(N)nc2N)cc(OC)c1OC [Trimethoprim, 5-[(3,4,5-trimethoxyphenyl)methyl]-2,4-pyrimidinediamine]
solubility in 2-pyrrolidone (45° C.): about 2.0 g/10 ml
solubility in 2-pyrrolidone (room temperature): about 0.4 g/10 ml
solubility in NMP (NMP, room temperature): about 1.6 g/10 ml
solubility in water (in words) [1]: not soluble in water
solubility in water ([1]; room temperature): about 0.04 g/100 ml
selectivity for inhibiting folate synthesis in protozoal enzymes [2]: high selectivity

solubility in acidic or basic aqueous medium (acidic or basic aqueous medium, room temperature): at least 2.3 g/10 ml
Structure (SMILES): Nc1ccc(S(=O)(=O)Nc2ncccn2)cc1 [sulfadiazine, 4-amino-N-2-pyrimidinylbenzenesulfonamide]
